Earlier results in patent US20150050250A1, “CELL THERAPY TECHNOLOGY TO DELIVER RADIO-PROTECTIVE PEPTIDES” (UNIVERSITY OF SOUTHERN CALIFORNIA, priority 2012, published 2015).

How the values were obtained:
fibroblasts = conditions: BBI peptide at 20 μM added directly to the tissue culture medium

Molecule | protection of fibroblasts from ionizing radiation (fibroblasts) | radioprotection of normal tissue in vivo (normal tissue)
CALSYPAQCFC (portion of Soybean Bowman Birk protease inhibitor) [BBI peptide] | protected fibroblasts from ionizing radiation | –
Bowman Birk protease inhibitor (protein, Soybean) DDESSKPCCDQCACTKSNPPQCRCSDMRLNSCHSACKSCICALSYPAQCFCVDITDFCYEPCKPSEDDKEN | – | selective radioprotection to normal tissue in vivo
